Assays:
MCF7 cells = test: WST-1 proliferation assay, MCF7; format: cell-based, human; conditions: MCF7, after 3 days
Experimental: (§1) WST-1 reagent from Roche Applied Sciences (11644807001) was used to measure cell number before drug addition and after 3 or 5 days of growth as described previously. Cells were seeded in 96-well plates at the following number of cells per well: HeLa (2000), MCF7 (2000), ZR-75-1 (1000), MCF10A (1000), MDA-MB-231(5000). DMSO was used at 0.1%. Relative absorbance was calculated by subtracting the average background (media only) signal, dividing by the average signal on day 0, and then dividing by the average day 5/day 0 ratio for the DMSO controls. Significance was calculated by unpaired, two-tailed student's t-test using GraphPad Prism 6.0 software.

PC9 cells = test: Colony formation assay, PC9 (gefitinib tolerance); format: cell-based, human
Experimental: Cells were seeded in 6-well plates at low density: HeLa, MCF7, BT474, and PC9 cells at 1000, 2000, 2500, and 2000 cells/well respectively. Media containing the prescribed drugs or 0.1% DMSO was replaced every 3 days. Trastuzumab was used at 5 μg/ml. Gefitinib was used at 2 μM. YUKA1 was used at 50 or 100 μM. Doxycycline was used at 1 μg/ml for 3 days. After 7–42 days depending on the rate of cell growth, cells were fixed in 4% para-formaldehyde in phosphate-buffered saline for 10 minutes rocking at room temperature. They were incubated in 0.05% crystal violet in double-distilled water for 30 minutes rocking at room temperature, washed with water, and dried 24 hours before photographing. ColonyArea, a plugin for ImageJ software, was used for quantification. Unpaired, two-tailed student's t-test calculated using GraphPad Prism 6.0 software was used to determine significance.

[1] = target: T1, FLAG-KDM6B (1043-1682) (JMJD3) (Homo sapiens, UniProt O15054); test: AlphaScreen KDM6B demethylation assay; format: biochemical
T1 construct: FLAG-KDM6B (1043-1682) was purchased from BPS Bioscience (50115); FLAG (N); purchased BPS Bioscience 50115
Experimental: (§2) Histone demethylase assays were performed as described previously, with the exception of all enzyme reactions containing 125 μM α-KG. Enzymes were used at the following approximate concentrations in validation experiments, chosen based on their activity in AlphaScreen assays: 19 nM FLAG-KDM5A, 15 nM FLAG-KDM5B, 6 nM FLAG-KDM5C, 29 nM His-FLAG-KDM6A, and 16 nM FLAG-KDM6B. 24 nM FLAG-KDM5A was used for Km determination experiments. Reactions were carried out for 1 hour, or were stopped by addition of 30 mM EDTA every 5 minutes for determining enzyme kinetics. Km values were calculated using the Michaelis-Menten non-linear regression analysis on GraphPad Prism 6.0 software. The concentration of DMSO in demethylation reactions was 0.05%. For reactions with catalase, catalase (Sigma C30) or an equal volume of dilution buffer was added to the peptide-containing buffer before addition of the demethylase. The final concentration of catalase in the reactions was 0.01 mg/ml.
(§3) The AlphaScreen general IgG (protein A) detection kit from PerkinElmer Life Sciences was used as described previously. The luminescence emission was recorded at 570 nm using the AlphaScreen optic module on a Pherastar (BMG Labtech) or Envision (PerkinElmer Life Sciences) microplate reader.

ZR-75-1 cells = test: WST-1 proliferation assay, ZR-75-1; format: cell-based, human; conditions: ZR-75-1, 5 days of treatment
Experimental: as §1

[2] = test system: H3K4 methylation in MCF10A cells; test: Western blot of global H3K4 methylation, MCF10A; format: cell-based, human; conditions: 72 hr treatment
Experimental: Cells were lysed as described previously. Histones were separated by centrifugation, resuspended in Laemmeli buffer, and sonicated. Protein concentration of cell lysates was measured by Bradford assay. Samples in Laemmeli buffer were boiled 10 minutes at 95°C and loaded onto 7% (whole cell lysates) or 18% (histones) SDS-PAGE gels. Membranes were blocked in 4% non-fat milk in Tris-buffered saline with 0.05% Tween (TBS-T) and incubated with primary antibodies in the same buffer or 5% bovine serum albumin in TBS-T overnight at 4°C. Membranes were incubated with secondary anti-rabbit or anti-mouse antibodies for one hour at room temperature. Blots were visualized by Thermo Scientific Pierce ECL Western Blotting Substrate (32106) or EMD Millipore Immobilon Western Chemiluminescent HRP Substrate (WBKLS0100) on film. Signal was quantified using ImageJ software.

His-FLAG-KDM6A (UTX) = target: T2, His-FLAG-KDM6A (UTX) (Homo sapiens, UniProt O15550); test: AlphaScreen KDM6A demethylation assay; format: biochemical
T2 construct: Full-length FLAG-KDM5B, FLAG-KDM5C, and His-FLAG-KDM6A production was detailed previously; His (N); FLAG (N); made in house
Experimental: as §2, §3

HeLa cells = test: WST-1 proliferation assay, HeLa; format: cell-based, human; conditions: after 3 days
Experimental: as §1

full-length FLAG-KDM5A = target: T3, full-length FLAG-KDM5A (Homo sapiens, UniProt P29375); test: AlphaScreen KDM5A demethylation assay; format: biochemical; conditions: for inhibition at 2 µM: 2 μM compound
T3 construct: Sf21 insect cells were infected with baculovirus to express full-length FLAG-KDM5A; made in house; host or cells: Sf21 insect cells (baculovirus)
Excerpt: AlphaScreen technology (PerkinElmer) was utilized to perform a screen for small molecule inhibitors of KDM5A. The assay was comprised of two steps, a demethylation reaction followed by detection of the product. A biotinylated H3K4me3 peptide was used as substrate in the demethylation reaction with KDM5A in the presence or absence of small molecule inhibitors. The presence of peptide product (H3K4me1/2) was detected using a product-specific antibody and beads. For this, acceptor beads coated in protein A bound to the antibody, which recognized the peptide product. Donor beads coated in streptavidin bound biotin on the peptide substrate. If the demethylation reaction occurred, the beads were in very close proximity and laser excitation of the donor beads at 680nm caused a transfer of energy in the form of reactive singlet oxygen, resulting in emission by the acceptor beads between 520–620 nm ([30, 31], Figure 1A). The luminescent signal detected was a proxy for the amount of demethylation that occurred.
Reactions were carried out for 1 hour, or were stopped by addition of 30 mM EDTA every 5 minutes for determining enzyme kinetics. Km values were calculated using the Michaelis-Menten non-linear regression analysis on GraphPad Prism 6.0 software. The concentration of DMSO in demethylation reactions was 0.05%. For reactions with catalase, catalase (Sigma C30) or an equal volume of dilution buffer was added to the peptide-containing buffer before addition of the demethylase. The final concentration of catalase in the reactions was 0.01 mg/ml.
as §3
IC50 values were calculated by log transformation and non-linear regression log(inhibitor) versus response(three parameters) using Graphpad Prism 6.0 software.

T3 sequence (P29375 whole entry): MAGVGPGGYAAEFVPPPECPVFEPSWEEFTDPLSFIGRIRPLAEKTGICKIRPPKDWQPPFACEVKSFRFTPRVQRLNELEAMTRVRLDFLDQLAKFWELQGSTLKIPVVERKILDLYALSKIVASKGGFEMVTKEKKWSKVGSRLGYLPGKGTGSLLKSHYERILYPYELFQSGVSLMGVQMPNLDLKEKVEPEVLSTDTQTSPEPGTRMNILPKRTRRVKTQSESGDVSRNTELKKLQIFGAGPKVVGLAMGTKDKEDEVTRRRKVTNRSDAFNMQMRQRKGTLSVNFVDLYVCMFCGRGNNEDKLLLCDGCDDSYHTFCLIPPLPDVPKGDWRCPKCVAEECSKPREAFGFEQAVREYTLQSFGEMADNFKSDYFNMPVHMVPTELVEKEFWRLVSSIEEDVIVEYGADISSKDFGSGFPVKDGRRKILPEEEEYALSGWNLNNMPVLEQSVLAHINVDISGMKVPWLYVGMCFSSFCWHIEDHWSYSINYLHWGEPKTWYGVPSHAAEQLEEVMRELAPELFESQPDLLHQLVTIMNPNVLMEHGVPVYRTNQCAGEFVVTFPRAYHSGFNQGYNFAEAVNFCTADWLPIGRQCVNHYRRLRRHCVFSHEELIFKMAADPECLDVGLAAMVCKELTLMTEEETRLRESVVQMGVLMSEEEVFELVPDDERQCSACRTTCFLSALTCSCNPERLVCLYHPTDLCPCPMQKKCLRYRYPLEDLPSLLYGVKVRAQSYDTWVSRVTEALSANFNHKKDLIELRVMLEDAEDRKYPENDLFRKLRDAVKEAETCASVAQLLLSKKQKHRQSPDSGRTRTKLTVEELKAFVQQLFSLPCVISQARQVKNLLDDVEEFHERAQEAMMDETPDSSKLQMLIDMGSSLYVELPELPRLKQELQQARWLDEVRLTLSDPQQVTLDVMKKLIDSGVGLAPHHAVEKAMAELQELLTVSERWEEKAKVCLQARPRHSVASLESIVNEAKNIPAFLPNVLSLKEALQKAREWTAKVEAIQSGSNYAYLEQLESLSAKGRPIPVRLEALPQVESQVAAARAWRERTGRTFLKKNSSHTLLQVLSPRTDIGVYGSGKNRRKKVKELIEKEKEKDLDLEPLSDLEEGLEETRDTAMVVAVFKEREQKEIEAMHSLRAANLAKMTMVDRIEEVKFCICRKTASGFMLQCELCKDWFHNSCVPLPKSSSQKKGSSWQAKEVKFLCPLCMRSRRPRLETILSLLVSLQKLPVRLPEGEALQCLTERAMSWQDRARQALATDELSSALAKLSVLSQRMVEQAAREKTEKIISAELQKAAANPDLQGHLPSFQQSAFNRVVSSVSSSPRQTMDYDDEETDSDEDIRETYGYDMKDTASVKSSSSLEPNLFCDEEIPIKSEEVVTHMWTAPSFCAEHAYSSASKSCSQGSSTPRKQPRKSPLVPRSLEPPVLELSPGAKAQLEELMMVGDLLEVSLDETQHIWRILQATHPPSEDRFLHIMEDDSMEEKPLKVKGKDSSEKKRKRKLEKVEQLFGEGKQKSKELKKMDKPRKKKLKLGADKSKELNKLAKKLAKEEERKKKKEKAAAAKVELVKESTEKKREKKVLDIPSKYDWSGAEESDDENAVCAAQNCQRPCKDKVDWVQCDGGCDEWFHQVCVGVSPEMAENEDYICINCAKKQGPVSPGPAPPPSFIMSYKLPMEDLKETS
T1 sequence (O15054 1043-1682 isoform O15054-1): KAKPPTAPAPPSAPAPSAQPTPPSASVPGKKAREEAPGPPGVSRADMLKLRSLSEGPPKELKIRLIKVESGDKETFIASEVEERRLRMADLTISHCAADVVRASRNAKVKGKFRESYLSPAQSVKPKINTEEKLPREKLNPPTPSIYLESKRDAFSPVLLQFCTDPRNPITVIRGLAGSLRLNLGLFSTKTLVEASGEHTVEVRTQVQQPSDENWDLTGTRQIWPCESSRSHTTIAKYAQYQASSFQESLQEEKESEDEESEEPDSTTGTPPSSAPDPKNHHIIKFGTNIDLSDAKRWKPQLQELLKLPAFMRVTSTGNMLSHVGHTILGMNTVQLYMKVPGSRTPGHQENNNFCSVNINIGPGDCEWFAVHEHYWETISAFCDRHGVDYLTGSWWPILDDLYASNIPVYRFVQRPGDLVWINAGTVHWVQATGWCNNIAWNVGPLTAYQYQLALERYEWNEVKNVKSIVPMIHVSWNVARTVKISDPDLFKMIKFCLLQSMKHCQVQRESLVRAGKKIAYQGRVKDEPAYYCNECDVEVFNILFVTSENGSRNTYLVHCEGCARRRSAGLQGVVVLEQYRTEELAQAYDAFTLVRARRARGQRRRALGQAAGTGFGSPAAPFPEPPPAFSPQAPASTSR
T2 sequence (O15550 whole entry): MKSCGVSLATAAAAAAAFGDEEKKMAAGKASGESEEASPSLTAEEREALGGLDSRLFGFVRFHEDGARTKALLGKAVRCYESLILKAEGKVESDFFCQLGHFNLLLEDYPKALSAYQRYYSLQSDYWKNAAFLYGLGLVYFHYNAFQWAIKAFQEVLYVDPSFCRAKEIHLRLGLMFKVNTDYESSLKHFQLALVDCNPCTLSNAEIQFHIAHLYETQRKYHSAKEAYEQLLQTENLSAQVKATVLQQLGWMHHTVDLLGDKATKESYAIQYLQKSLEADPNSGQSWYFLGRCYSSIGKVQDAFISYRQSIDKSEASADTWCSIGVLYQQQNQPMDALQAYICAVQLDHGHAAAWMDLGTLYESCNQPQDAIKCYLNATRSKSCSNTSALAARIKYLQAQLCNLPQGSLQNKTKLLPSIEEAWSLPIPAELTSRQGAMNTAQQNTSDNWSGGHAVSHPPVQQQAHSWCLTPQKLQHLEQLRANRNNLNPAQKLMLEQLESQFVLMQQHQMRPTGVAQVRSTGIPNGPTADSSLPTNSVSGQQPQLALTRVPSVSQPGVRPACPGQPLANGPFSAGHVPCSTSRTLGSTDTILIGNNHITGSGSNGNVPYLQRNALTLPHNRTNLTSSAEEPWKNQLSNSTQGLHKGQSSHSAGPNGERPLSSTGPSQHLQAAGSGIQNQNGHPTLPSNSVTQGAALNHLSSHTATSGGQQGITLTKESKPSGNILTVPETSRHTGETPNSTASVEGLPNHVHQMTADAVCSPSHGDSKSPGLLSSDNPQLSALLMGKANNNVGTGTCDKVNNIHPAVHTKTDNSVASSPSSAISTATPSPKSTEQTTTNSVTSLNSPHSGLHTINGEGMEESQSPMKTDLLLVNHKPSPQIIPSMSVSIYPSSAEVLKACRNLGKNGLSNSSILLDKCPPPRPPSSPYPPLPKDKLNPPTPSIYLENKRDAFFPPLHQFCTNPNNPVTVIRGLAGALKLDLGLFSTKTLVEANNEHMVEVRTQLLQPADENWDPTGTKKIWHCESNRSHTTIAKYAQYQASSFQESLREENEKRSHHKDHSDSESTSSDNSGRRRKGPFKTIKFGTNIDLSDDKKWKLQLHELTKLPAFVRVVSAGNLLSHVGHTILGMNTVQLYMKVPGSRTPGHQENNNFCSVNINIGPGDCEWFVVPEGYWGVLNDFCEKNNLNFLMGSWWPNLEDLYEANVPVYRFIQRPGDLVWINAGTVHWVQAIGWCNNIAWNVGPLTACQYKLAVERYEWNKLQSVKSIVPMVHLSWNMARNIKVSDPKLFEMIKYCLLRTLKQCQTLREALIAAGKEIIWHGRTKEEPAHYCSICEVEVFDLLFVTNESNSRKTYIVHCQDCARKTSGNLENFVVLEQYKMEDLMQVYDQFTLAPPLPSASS

Question: How did the proliferation (MCF7 cells) turn out when C=CCOc1c(CNn2cnnc2S)cccc1OC [YUKA1, 4-([2-(allyloxy)-3-methoxybenzyl]amino)-4H-1,2,4-triazole-3-thiol] was run?
Answer: The proliferation was “not affected”.

Question: And the “cell growth, compound alone” value (PC9 cells; PC9, 7 days)?
Answer: Its value is “not significantly affected”.

Question: What about the “colony formation during long-term gefitinib treatment” value (PC9 cells; PC9, plus 2 μM gefitinib, 35 days) of the same compound?
Answer: Its value is “fewer YUKA1-treated cells formed colonies”.

Question: What about the IC50 [1] of the same compound?
Answer: Its IC50 is > 50 µM.

Question: And the cell proliferation (ZR-75-1 cells)?
Answer: The cell proliferation was “decreased cell proliferation”.

Question: What about the H3K4 methylation levels [2] of the same compound?
Answer: The H3K4 methylation levels was “did not affect H3K4 methylation levels”.

Question: What about the IC50 (His-FLAG-KDM6A (UTX)) of the same compound?
Answer: The IC50 was > 50 µM.

Question: And the “proliferation relative to DMSO-treated cells” value (HeLa cells)?
Answer: Its value is “less than half of DMSO-treated cells”.

Question: And the “mode of inhibition with respect to Fe(II)” value (full-length FLAG-KDM5A)?
Answer: The value was “uncompetitive with respect to Fe(II)”.

Question: And the “change of IC50 over a 16-fold range of α-KG concentrations” value (full-length FLAG-KDM5A; 150 nM H3K4me3 peptide, 50 μM Fe(II))?
Answer: Its value is “did not change significantly”.

Question: What about the inhibition at 2 µM (full-length FLAG-KDM5A; 50 μM Fe(II)) of the same compound?
Answer: The inhibition at 2 µM was ~70%.

Question: What about the inhibition at 2 µM (full-length FLAG-KDM5A; low Fe(II)) of the same compound?
Answer: Its inhibition at 2 µM is ~25%.

Question: And the “enzyme inhibition at low Fe(II)” value (full-length FLAG-KDM5A; 5 μM Fe(II))?
Answer: Its value is “too weak to generate robust IC50 curves”.

Question: What about the “effect of catalase on inhibitory potency against KDM5A” value (full-length FLAG-KDM5A; 0.01 mg/ml catalase) of the same compound?
Answer: The value was “did not affect”.

Question: What about the IC50 (full-length FLAG-KDM5A; AlphaScreen, 1 hour reaction, 0.05–50 μM compound) of the same compound?
Answer: The IC50 was 2.66 µM.

From article PMC5129982, “Screen-identified selective inhibitor of lysine demethylase 5A blocks cancer cell growth and drug resistance” (Oncotarget, 2016)
